The NIST ThermoML archive (doi:10.1016/j.jct.2013.08.021)
± gives the expanded uncertainty stated by the source.

What was measured:
[1] = for viscosity / speed of sound / mass density: 101 kPa, Liquid; for viscosity: Capillary tube (Ostwald / Ubbelohde) method; for speed of sound: Sing-around technique in a fixed-path interferometer; for mass density: Vibrating tube method
[2] = refractive index (Na D-line) (dimensionless); conditions: 101 kPa, Liquid, Standard Abbe refractometry

CCC[N+]1(C)CCCC1.O=S(=O)([N-]S(=O)(=O)C(F)(F)F)C(F)(F)F
Conditions	mass density, [1] [kg/m3]	refractive index, [2]	speed of sound, [1] [m/s]	viscosity, [1] [mPa·s]
293.15 K	1432.42 ± 0.61	1.42208 ± 0.00037	1281.9 ± 1.5	66.61 ± 1.4
298.15 K	1427.86 ± 0.6	1.42069 ± 0.00037	1270.6 ± 1.5	49.35 ± 1
303.15 K	1423.37 ± 0.6	1.41928 ± 0.00037	1259 ± 1.5	38.52 ± 0.81
308.15 K	1418.86 ± 0.59	1.41787 ± 0.00037	1249.1 ± 1.5	30.93 ± 0.65
313.15 K	1414.37 ± 0.59	1.41644 ± 0.00037	1238.2 ± 1.5	26.17 ± 0.55
318.15 K	1409.9 ± 0.58	1.415 ± 0.00037	1227.4 ± 1.5	22.39 ± 0.47
323.15 K	1405.45 ± 0.58	1.41354 ± 0.00037	1216.9 ± 1.5	19.31 ± 0.41
328.15 K	1401.01 ± 0.58	1.41212 ± 0.00037	1205.9 ± 1.5	17.13 ± 0.36
333.15 K	1396.59 ± 0.57	1.41073 ± 0.00037	1196.4 ± 1.5	15.07 ± 0.32
338.15 K	1392.17 ± 0.57	1.40932 ± 0.00037	1186.3 ± 1.5	13.36 ± 0.28
343.15 K	1387.77 ± 0.56	1.40796 ± 0.00037	1176.2 ± 1.5	11.93 ± 0.25

Conditions	Normal melting temperature [°C]
[1], Crystal, DTA	11.00 ± 2
